Results published in ChEMBL document CHEMBL1137708, “3D-QSAR studies of boron-containing dipeptides as proteasome inhibitors with CoMFA and CoMSIA methods” (Eur J Med Chem, 2009).

experiment: Inhibition of SDS-activated 20S proteasome activity in rabbit muscle; type: tissue-based, Oryctolagus cuniculus, Muscle tissue

pKi | Structure (SMILES)
8.27 | CC(=O)N[C@@H](Cc1cccnc1)C(=O)N[C@@H](CC(C)C)B(O)O
9.55 | CC(C)C[C@H](NC(=O)[C@H](Cc1cccc2ccccc12)NS(C)(=O)=O)B1OCCNCCO1
9.77 | Cc1ccc(S(=O)(=O)N[C@@H](Cc2cccc3ccccc23)C(=O)N[C@@H](CC(C)C)B(O)O)cc1
9.7 | CC(C)C[C@H](NC(=O)[C@H](Cc1ccc(OCc2ccccn2)cc1)NC(=O)N1CCOCC1)B(O)O
9.6 | CC(C)C[C@H](NC(=O)[C@H](Cc1ccccc1)NC(=O)c1cccnc1)B(O)O
8.85 | CC(C)C[C@H](NC(=O)[C@H](Cc1ccccn1)NC(=O)c1ccc2ccccc2n1)B(O)O
9.82 | CC(C)C[C@H](NC(=O)[C@H](Cc1ccccc1)NC(=O)c1ccccc1)B(O)O
9.85 | CC(C)C[C@H](NC(=O)[C@H](Cc1ccccc1)NC(=O)c1cc[nH]c1)B(O)O
6 | CC(C)C[C@H](NC(=O)[C@H](CC(C)C)N(C)C(=O)OCc1ccccc1)B(O)O
9.38 | CC(C)C[C@H](NC(=O)[C@H](Cc1ccccc1)NC(=O)c1ccccn1)B(O)O
8.15 | CC(C)C[C@H](NC(=O)[C@H](Cc1ccccn1)NC(=O)c1cnccn1)B(O)O
7.6 | CC(C)C[C@H](NC(=O)[C@H](Cc1c[nH]cn1)NC(=O)OCc1ccccc1)B(O)O
8.24 | CC(C)C[C@H](NC(=O)[C@H](Cc1c[nH]c2ccccc12)NS(C)(=O)=O)B(O)O
9.85 | CC(C)C[C@H](NC(=O)[C@H](Cc1cccc2ccccc12)NC(=O)c1cnc2ccccc2n1)B(O)O
9.82 | CC(C)C[C@H](NC(=O)[C@H](Cc1cccc2ccccc12)NC(=O)N1CCOCC1)B1OCCNCCO1
8.96 | CC(C)C[C@H](NC(=O)[C@H](Cc1ccccn1)NC(=O)C1CCCCC1)B(O)O
9.77 | CC(=O)N[C@@H](Cc1cccc2ccccc12)C(=O)N[C@@H](CC(C)C)B(O)O

pKi | Structure (SMILES)
10.52 | CC(C)C[C@H](NC(=O)[C@H](Cc1cccc2ccccc12)NC(=O)C1CCCCC1)B(O)O
8.96 | CN[C@@H](Cc1cccc2ccccc12)C(=O)N[C@@H](CC(C)C)B(O)O
7.54 | CC(C)C[C@H](NC(=O)[C@H](Cc1ccccn1)NS(=O)(=O)c1cccc2cccnc12)B(O)O
9.77 | CC(C)C[C@H](NC(=O)[C@H](Cc1ccccc1)NC(=O)c1ccoc1)B(O)O
7 | CB(O)[C@H](CC(C)C)NC(=O)[C@H](Cc1cccc2ccccc12)NC(=O)N1CCOCC1
9.29 | CC(C)C[C@H](NC(=O)[C@H](Cc1ccc(O)cc1)NC(=O)N1CCOCC1)B(O)O
8.89 | CC(C)C[C@H](NC(=O)[C@H](Cc1cccnc1)NC(=O)N1CCOCC1)B(O)O
9.89 | CC(C)C[C@H](NC(=O)[C@H](Cc1ccccc1)NC(=O)OCc1ccccc1)B(O)O
6.19 | CB(C)[C@H](CC(C)C)NC(=O)[C@H](Cc1cccc2ccccc12)NC(=O)N1CCOCC1
9.64 | CC(C)C[C@H](NC(=O)[C@H](Cc1ccc(OCc2ccccc2)cc1)NC(=O)N1CCOCC1)B(O)O
8.41 | CC(C)C[C@@H](NC(=O)[C@H](N)Cc1cccc2ccccc12)B(O)O.Cl (single isomer, unassigned)
9.82 | CC(C)CC(NC(=O)[C@H](Cc1ccccc1)NC(=O)CCc1ccccc1)B(O)O (single isomer, unassigned)
9.08 | CC(C)CC(NC(=O)[C@H](Cc1ccc(F)cc1)NC(=O)c1ccccn1)B(O)O (single isomer, unassigned)
8.77 | CC(C)CC(NC(=O)[C@H](Cc1cccc2ccccc12)NS(=O)(=O)c1cccc2cccnc12)B(O)O (single isomer, unassigned)
10 | CC(C)CC(NC(=O)[C@H](Cc1cccc2ccccc12)NC(=O)OCc1ccccc1)B1O[C@@H]2[C@H]3C[C@@H](C[C@]2(C)O1)C3(C)C (single isomer, unassigned)
9.22 | CC(C)C[C@H](NC(=O)[C@H](Cc1ccccc1)NC(=O)c1cnccn1)B(O)O [BORTEZOMIB]

More lines, now with the values behind:

Structure (SMILES) | pKi
CC(C)C[C@H](NC(=O)[C@H](Cc1cccnc1)NS(C)(=O)=O)B(O)O | 8.2
CC(C)C[C@H](NC(=O)[C@H](Cc1ccccc1)NC(=O)N1CCOCC1)B(O)O | 9.09
CC(C)C[C@H](NC(=O)[C@H](CC(C)C)NC(=O)OCc1ccccc1)B(O)O | 8.52
CC(C)C[C@H](NC(=O)[C@H](Cc1ccc(F)cc1)NC(=O)c1cnccn1)B(O)O | 9.02
CC(C)C[C@H](NC(=O)[C@@H](N)Cc1cccnc1)B(O)O | 6.82
CB(C)[C@H](CC(C)C)NC(=O)[C@H](CCc1ccccc1)NC(=O)N1CCOCC1 | 8.66
B[C@H](CC(C)C)NC(=O)[C@H](Cc1cccc2ccccc12)NC(=O)N1CCOCC1 | 8.7
CC(C)C[C@H](NC(=O)[C@H](Cc1cccc2ccccc12)NC(=O)c1ccccc1)B(O)O | 10.06
CC(C)C[C@H](NC(=O)[C@H](Cc1c[nH]c2ccccc12)NC(=O)N1CCOCC1)B(O)O | 8.52
CC(C)C[C@H](NC(=O)[C@H](Cc1ccccc1)NC(=O)c1ccc2ccccc2n1)B(O)O | 9.72
CC(C)C[C@H](NC(=O)[C@H](Cc1ccc2ccccc2n1)NC(=O)N1CCOCC1)B(O)O | 8.66
CC(C)C[C@H](NC(=O)[C@H](Cc1ccccc1)NC(=O)NCc1ccccc1)B(O)O | 9.85
CC(C)C[C@H](NC(=O)[C@@H](N)Cc1ccccn1)B(O)O | 7.5
CB(C)[C@H](CC(C)C)NC(=O)[C@H](CCc1ccccc1)NC(=O)c1ccc2ccccc2n1 | 8.55
CC(C)C[C@H](NC(=O)[C@@H](N)Cc1cccc2ccccc12)B(O)O | 8.12
CC(C)C[C@H](NC(=O)[C@H](Cc1cccc2ccccc12)NC(=O)c1ccc2ccccc2n1)B(O)O | 10.12
CC(C)C[C@H](NC(=O)[C@H](Cc1ccccn1)NC(=O)c1ccccc1)B(O)O | 9.12
CC(C)C[C@H](NC(=O)[C@H](Cc1ccccc1)NS(=O)(=O)c1cccc2cccnc12)B(O)O | 8.36
CC(C)C[C@H](NC(=O)[C@H](Cc1ccccn1)NC(=O)N1CCOCC1)B(O)O | 8.2
CC(=O)N[C@@H](Cc1c[nH]c2ccccc12)C(=O)N[C@@H](CC(C)C)B(O)O | 8.89
CC(C)C[C@H](NC(=O)[C@H](Cc1cccc2ccccc12)NC(=O)OCc1ccccc1)B(O)O | 10.08
CC(C)C[C@H](NC(=O)[C@H](Cc1ccc2ncccc2c1)NC(=O)N1CCOCC1)B(O)O | 8.22
CC(C)C[C@H](NC(=O)[C@H](Cc1cccc2ccccc12)N(C)C(=O)OCc1ccccc1)B(O)O | 9.02
CC(C)CC(NC(=O)[C@H](Cc1cccc2ccccc12)NC(=O)N1CCOCC1)B(O)O (single isomer, unassigned) | 9.14
CC(C)CC(NC(=O)C(CC(C)C)NC(=O)OCc1ccccc1)B1O[C@@H]2[C@H]3C[C@@H](C[C@]2(C)O1)C3(C)C (single isomer, unassigned) | 6.92
